Where a SMILES comes first, the peptide text is derived from it. Bridges are numbered along the chain shown (N, C = ends).
What was measured:
CK2 holoenzyme = target: T1, CK2 holoenzyme (Homo sapiens, UniProt P68400); test: CK2 kinase assay with CK2β-independent peptide substrate; assay type: biochemical; conditions: CK2 holoenzyme 100 nM, 15 min at 4 °C; at high TAT-Pc 13 concentrations
T1 construct: made in house
Method: Figure 4 Inhibitory activity of a TAT-Pc analogue in vitro. (A) CK2 holoenzyme (100 nM) was incubated in the presence of increasing concentrations of TAT-Pc 13 for 15 min at 4 °C. CK2 activity was then determined with CK2β-dependent or independent peptide substrates; (B) [^35S]-labeled CK2α was incubated with biotinylated MBP-CK2β immobilized on streptavidin coated plates (preformed complex) in the absence (1) or presence (2) of TAT-Pc 13. Alternatively, [^35S]-labeled CK2α was incubated with TAT-Pc 13 (3) or random TAT-Pc 13 (4) and then with immobilized biotinylated MBP-CK2β. After washing, the amount of [^35S]-labeled CK2α remaining in the complex was determined by radioactivity counting. Representative data shown from two independent experiments. Results are presented as mean ± s.d. of triplicates.
CK2 kinase assays were performed in a phosphorylation buffer containing recombinant CK2α (36 ng) or recombinant CK2 holoenzyme (50 ng) and a mixture containing 10 mM MgCl2 and 1 μCi of [γ-32P]ATP and 0.15 M NaCl in the presence of 0.2 mM of the CK2β-independent substrate […] [28] or the CK2β-dependent substrate […] [18]. […] Kinase reactions were terminated by the addition of 60 μL of 4% trichloroacetic acid and sample adsorption on phosphocellulose P81 paper, which were washed in 0.5% phosphoric acid and counted in a scintillation counter.

[1] = target: T2, CK2α/CK2β subunit interaction in MCF-10A cells (Homo sapiens, UniProt P68400); test: In situ proximity ligation assay of CK2α and CK2β; assay type: cell-based; conditions: 50 µM, 6 h, WT MCF-10A cells; positive control 4.8 ± 1.5 dots/cell
T2 construct: endogenous in cells; host or cells: MCF-10A (WT)
Method: Figure 7 Uptake and cellular effects of TAT-Pc 13. (A) kinetic of TAMRA-TAT-Pc 13 uptake in MCF-10A cells; (B) WT or CK2β-depleted MCF-10A cells were incubated with 50 µM TAT or TAT-Pc 13 for 8 h and the expression of CK2 subunits was evaluated by Western blot; (C) anti-CK2β immunoprecipitates were prepared from WT MCF-10A cells incubated with 50 µM TAT or TAT-Pc 13 for 2 h. Presence of CK2 subunits in the corresponding immunoprecipitates was determined by Western blot; (D) in situ proximity ligation images of MCF-10A cells incubated with 50 µM TAT (a,b,d) or TAT-Pc 13 (c) for 6 h. WT cells were incubated with CK2α antibody alone (a) or CK2α and CK2β antibodies (b,c). […]
PLA is an antibody-based method representing a reliable readout of molecular proximity of two antigens located on two distinct proteins. […] The fluorescent signal from each pair of PLA probes confirms a close proximity and not simply subcellular colocalization and can then be detected and quantified as fluorescent spots in microscopic images of the cells. […] No signal was detected in CK2β-depleted cells (panel d).
In situ PLAs were performed using a Duolink kit (Olink Bioscience, Uppsala, Sweden) according to the manufacturer’s instructions with some modifications. […] Images were observed using a Zeiss Apotome microscope and analyzed using a Zen Pro imaging software (Zeiss, Oberkochen, Germany). […]

T2 sequence (P68400 whole entry): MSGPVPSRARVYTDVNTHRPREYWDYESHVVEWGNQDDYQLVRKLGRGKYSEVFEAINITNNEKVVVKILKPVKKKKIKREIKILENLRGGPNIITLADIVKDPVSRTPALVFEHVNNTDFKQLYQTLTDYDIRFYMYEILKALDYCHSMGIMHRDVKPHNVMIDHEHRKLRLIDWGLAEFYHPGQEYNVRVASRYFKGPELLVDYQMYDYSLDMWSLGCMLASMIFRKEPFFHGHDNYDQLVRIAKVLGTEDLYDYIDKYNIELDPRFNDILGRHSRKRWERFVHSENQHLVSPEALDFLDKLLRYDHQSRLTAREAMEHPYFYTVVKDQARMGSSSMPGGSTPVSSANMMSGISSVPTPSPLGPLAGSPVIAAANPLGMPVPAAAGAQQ
T1 sequence (P68400 whole entry): as above

CC[C@H](C)[C@@H]1NC(=O)[C@H](CCCCN)NC(=O)[C@H](Cc2ccccc2)NC(=O)CNC(=O)[C@H](Cc2ccc(O)cc2)NC(=O)[C@H](CC(C)C)NC(=O)[C@H](CCCNC(=N)N)NC(=O)CNC(=O)CNC(=O)[C@@H](NC(=O)[C@H](CCC(N)=O)NC(=O)[C@@H]2CCCN2C(=O)[C@@H]2CCCN2C(=O)[C@H](CCCNC(=N)N)NC(=O)[C@H](CCCNC(=N)N)NC(=O)[C@H](CCCNC(=N)N)NC(=O)[C@H](CCC(N)=O)NC(=O)[C@H](CCCNC(=N)N)NC(=O)[C@H](CCCNC(=N)N)NC(=O)[C@H](CCCCN)NC(=O)[C@H](CCCCN)NC(=O)[C@H](CCCNC(=N)N)NC(=O)CN)CCCCNC(=O)CNC(=O)CNC(=O)[C@H](Cc2c[nH]cn2)NC1=O [TAT-Pc 13] (H-GRKKRRQRRRPPQKGGRLYGFKIHGG; lactam 14-C; N-terminus assumed)
CK2β-independent peptide phosphorylation (CK2 holoenzyme): significantly stimulated
number of CK2α/CK2β interaction dots [1]: 2.2 ± 1.1 dots/cell
